Data: patent US20080063628A1, “METHODS TO PROMOTE CELL DIFFERENTIATION” (priority 2006, published 2008)

Assays:
Format in all cases: cell-based, human
[1] = tested on: early passage (P5) pancreatic-derived stromal cell line; experiment: 6 hour trichostatin A treatment, gene expression by RT-PCR (Example 10); conditions: for HNF-3 beta gene expression / Insulin gene expression / Pdx-1 gene expression / glucagon gene expression: 5 μM for 6 h then removed
Method: (§1) Amniotic fluid derived cells or pancreas-derived cells were seeded into 24-well tissue culture plates at a density of 5000/cm^2 and cultured in AMNIOMAX (Invitrogen) or DMEM with 10% FBS respectively under standard cell culture conditions until confluency was reached. Upon reaching confluency, amniotic fluid derived cells were treated with 1.25 μM trichostatin A and pancreas-derived stromal cells were treated with 5.0 μM trichostatin A. The media was changed 6 hours following the addition of trichostatin A and cultures were maintained for the remainder of the experiment. Several cell lines obtained from amniotic fluid (see Example 14) and pancreas (see Example 13) were tested.
(§2) RNA samples were obtained at the time the trichostatin A was removed and 24 hours from the start of the experiment. The culture media was removed and cells were washed with PBS then collected in RLT Lysis Buffer with β-mercaptoethanol (Qiagen). RNA was purified using the RNeasy Mini Kit (Qiagen) and RNA quantity and quality was determined using a spectrophotometer. cDNA was made using the iScript cDNA synthesis kit (BioRad). Human pancreas cDNA was included as a control. Results were normalized against GAPDH expression levels.
(§3) The expression levels of Sox17, HNF-3 beta, Pdx-1, Insulin, and Gata-1 were analyzed in amniotic-derived cells while the expression levels of glucagon, insulin, PDX-1 and HNF-3 beta were analyzed in pancreas-derived cells. 20 ng of cDNA was used in each RT-PCR reaction, which was performed on the Applied Biosystems 7500, according to the methods described in Example 15. Data was analyzed using the accompanying software.
(§4) Real-time PCR amplifcation and quantitative analysis. Unless otherwise stated, all reagents were purchased from Applied Biosystems. Real-time PCR reactions were performed using the ABI PRISM™ 7500 Sequence Detection System. TAQMAN™ FAST UNIVERSAL PCR MASTER MIX™ (ABI, CA) was used with 20 ng of reverse transcribed RNA in a total reaction volume of 20 μl. Each cDNA sample was run in duplicate to allow correction of pipetting errors. Primers and FAM-labeled TAQMAN™ probes were used at concentrations of 200 nM. The level of expression for each target gene was normalized using the pre-developed Applied Biosystem's human glyceraldehyde-3-phosphate dehydrogenase (GAPDH) endogenous control kit. Primers and probes were designed using either ABI PRISM PRIMER EXPRESS™ software or a pre-developed ABI gene analysis kit. For each gene, either one of the primers or the probe were designed to be exon-boundary spanning. This eliminated the possibility of the primers/probe binding to any genomic DNA present. The primer and probe sets are listed as follows: Pdx-1 (Hs00426216), Insulin (Hs00355773), glucagon (Hs00174967), and FoxA2 (HNF 3-beta) (Hs00232764). The remaining primers were designed using the PRIMERS program (ABI, CA). After an initial 95° C. incubation for 20 sec, samples were cycled 40 times in two stages: a denaturation step at 95° C. for 3 sec, followed by an annealing/extension step at 60° C. for 30 sec.
(§5) For each primer/probe set, a cycle time value was determined as the cycle number at which the fluorescence intensity of the PCR reaction reached a specific value in the middle of the exponential region of amplification. An increase in expression of a gene corresponded to a decrease in the number of cycles required for the fluorescence intensity to reach this value.

[2] = tested on: second amniotic fluid-derived cell line; experiment: as above; conditions: for Gata1 gene expression / HNF-3 beta gene expression / Insulin gene expression / Pdx-1 gene expression / sox17 gene expression: 1.25 μM for 6 h then removed
Method: as §1, §2, §3, §4, §5

[3] = tested on: second amniotic fluid-derived cell line; experiment: Two high dose trichostatin A treatments (first 48 h), gene expression by RT-PCR (Example 9); conditions: 1.25 μM, following first treatment;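 also: lower cycle number means higher gene expression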
[4] = 5.0 μM, following 6 h treatment

`CC(/C=C/C(=O)NO)=C\[C@@H](C)C(=O)c1ccc(N(C)C)cc1` [trichostatin A] was tested, and the “HNF-3 beta gene expression” value ([1]; 6 hrs) was “+++ (detectable at less than 35 cycles by RT-PCR with SE less than 0.9)”, the Insulin gene expression ([1]; 6 hrs) was “nd (not detectable at >40 cycles by RT-PCR)” and the Pdx-1 gene expression ([1]; 6 hrs) was “+ (detectable between 35 and 40 cycles by RT-PCR)”. For the same molecule, the glucagon gene expression ([1]; 6 hrs) was “+ (detectable between 35 and 40 cycles by RT-PCR)”, the “HNF-3 beta gene expression” value ([1]; 24 hrs) was “nd (not detectable at >40 cycles by RT-PCR)” and the Insulin gene expression ([1]; 24 hrs) was “+++ (detectable at less than 35 cycles by RT-PCR with SE less than 0.9)”. The Pdx-1 gene expression ([1]; 24 hrs) was “nd (not detectable at >40 cycles by RT-PCR)”, the glucagon gene expression ([1]; 24 hrs) was “+ (detectable between 35 and 40 cycles by RT-PCR)” and the “Insulin RT-PCR detection cycle” value ([1]; 5.0 μM, after trichostatin A was removed from the media) was 32 cycles. The “HNF-3 beta RT-PCR detection cycle” value [1, 4] was 35 cycles, the “glucagon RT-PCR detection cycle” value [1, 4] was 37 cycles and the “Pdx-1 RT-PCR detection cycle” value ([1]; 5.0 μM, following treatment (38 before treatment)) was 35 cycles. For the same molecule, the Gata1 gene expression ([2]; 6 hrs) was “nd (not detectable at >40 cycles by RT-PCR)”, the “HNF-3 beta gene expression” value ([2]; 6 hrs) was “+++ (detectable at less than 35 cycles by RT-PCR with SE less than 0.9)” and the Insulin gene expression ([2]; 6 hrs) was “nd (not detectable at >40 cycles by RT-PCR)”. The Pdx-1 gene expression ([2]; 6 hrs) was “+++ (detectable at less than 35 cycles by RT-PCR with SE less than 0.9)”, the sox17 gene expression ([2]; 6 hrs) was “+++ (detectable at less than 35 cycles by RT-PCR with SE less than 0.9)” and the Gata1 gene expression ([2]; 24 hrs) was “nd (not detectable at >40 cycles by RT-PCR)”. For the same molecule, the “HNF-3 beta gene expression” value ([2]; 24 hrs) was “+ (detectable between 35 and 40 cycles by RT-PCR)”, the Insulin gene expression ([2]; 24 hrs) was “nd (not detectable at >40 cycles by RT-PCR)” and the Pdx-1 gene expression ([2]; 24 hrs) was “nd (not detectable at >40 cycles by RT-PCR)”. The sox17 gene expression ([2]; 24 hrs) was “+++ (detectable at less than 35 cycles by RT-PCR with SE less than 0.9)”, the “HNF-3 beta RT-PCR detection cycle” value ([2]; 1.25 μM, 6 hours of treatment) was 31 cycles and the “Pdx-1 RT-PCR detection cycle” value ([2]; 1.25 μM, 6 hours of treatment) was 35 cycles. For the same molecule, the “HNF-3 beta RT-PCR detection cycle” value ([2]; 1.25 μM, following removal) was 35 cycles and the “Gata-1 RT-PCR detection cycle” value [3] was 38 cycles.
